Like-named read-outs stand apart in the source and are kept apart here.
Columns and labels:
CYP2D15 [1] = target: T1, CYP2D15 (Canis lupus familiaris, UniProt Q29473); assay type: in vitro ADME, canine; conditions: recombinant CYP2D15; (+)-M1 10 μM, (+)-M2 0.5 μM
T1 sequence (Q29473 1-500): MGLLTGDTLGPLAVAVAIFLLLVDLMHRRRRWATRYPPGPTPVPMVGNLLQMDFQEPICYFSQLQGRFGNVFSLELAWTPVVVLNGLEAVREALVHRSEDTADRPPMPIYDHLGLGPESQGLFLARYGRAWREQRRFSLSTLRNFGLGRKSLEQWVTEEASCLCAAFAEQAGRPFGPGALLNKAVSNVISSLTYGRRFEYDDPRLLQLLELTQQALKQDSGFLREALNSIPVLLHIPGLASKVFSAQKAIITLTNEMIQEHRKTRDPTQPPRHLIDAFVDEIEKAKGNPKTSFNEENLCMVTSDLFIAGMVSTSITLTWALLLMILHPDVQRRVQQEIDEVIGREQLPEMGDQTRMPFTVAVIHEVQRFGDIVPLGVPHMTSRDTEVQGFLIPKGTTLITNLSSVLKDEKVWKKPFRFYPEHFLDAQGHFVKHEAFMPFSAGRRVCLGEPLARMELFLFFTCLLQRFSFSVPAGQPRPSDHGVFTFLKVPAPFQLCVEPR

cat liver microsomes = assay type: in vitro ADME; conditions: for formation to metabolism ratio: feline liver microsomes, formation rate from (±)-tramadol (Perez Jimenez, 2016) / rate of (+)-M5 formation from the (+)-metabolite
dog liver microsomes = assay type: in vitro ADME; conditions: for Km / Vmax: formation of (+)-M5 from substrate; for formation to metabolism ratio: DLMs, formation rate from (±)-tramadol (Perez Jimenez, 2016) / rate of (+)-M5 formation from the (+)-metabolite
human liver microsomes = assay type: in vitro ADME; conditions: human liver microsomes; formation rate from (±)-tramadol (Perez Jimenez, 2016) / rate of (+)-M5 formation from the (+)-metabolite
[2] = rats, after tramadol administration; ref Sheikholeslami, 2016; cited from earlier work
μ-opioid = conditions: in vitro testing; ref Gillen, 2000; cited from earlier work
[3] = dogs, after tramadol administration; ref Kukanich, 2011; Giorgi, 2009; cited from earlier work
[4] = dog urine; ref Lintz, 1981; cited from earlier work
CYP2D15 [5] = conditions: CYP2D15 mediated dextromethorphan o-demethylation in DLMs; ref Aidasani, 2008; cited from earlier work
[6] = system: (+)-M5 formation from (+)-M2 in pooled DLMs; assay: in vitro; conditions: dog
CYP2D15 [7] = target: T1, CYP2D15; assay: in vitro; conditions: dog, recombinant enzyme
[8] = system: (+)-M5 formation from (+)-M1 in pooled DLMs; assay: in vitro; conditions: dog
CYP2C21 = target: T2, CYP2C21 (Canis lupus familiaris, UniProt P56594); assay: in vitro; conditions: dog, recombinant enzyme
T2 sequence (P56594 1-487): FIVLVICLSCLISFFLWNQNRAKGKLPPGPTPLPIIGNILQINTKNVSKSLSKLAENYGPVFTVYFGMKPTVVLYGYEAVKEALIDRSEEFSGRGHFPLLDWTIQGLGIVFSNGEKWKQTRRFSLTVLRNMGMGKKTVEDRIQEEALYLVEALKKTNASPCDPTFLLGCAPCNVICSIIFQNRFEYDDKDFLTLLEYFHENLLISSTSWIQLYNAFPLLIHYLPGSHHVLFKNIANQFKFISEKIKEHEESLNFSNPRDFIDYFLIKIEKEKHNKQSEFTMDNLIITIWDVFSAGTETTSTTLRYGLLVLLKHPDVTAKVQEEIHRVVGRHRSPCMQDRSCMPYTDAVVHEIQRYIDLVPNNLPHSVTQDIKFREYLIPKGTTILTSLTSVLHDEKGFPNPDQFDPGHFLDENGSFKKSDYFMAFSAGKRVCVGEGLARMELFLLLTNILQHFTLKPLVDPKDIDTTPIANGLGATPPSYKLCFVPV

CNCC1CCCCC1(O)c1cccc(OC)c1 (single isomer, unassigned; (+)) [(+)-M2, (+)-N-desmethyltramadol]
formation rate of (+)-M5 (in words) (CYP2D15 [1]): only detected for CYP2D15 | (+)-M5 formation rate (in words) (cat liver microsomes; pooled cat liver microsomes (n = 16), (+)-M1 at 10 μM, (+)-M2 at 0.5 μM): intermediate between human and DLMs | Km (dog liver microsomes; Dog 10 liver microsomes): 0.46 µM | Vmax (dog liver microsomes; Dog 10 liver microsomes): 27 pmol/min/mg protein | Km (dog liver microsomes; Dog 31 liver microsomes): 0.39 µM | Vmax (dog liver microsomes; Dog 31 liver microsomes): 23 pmol/min/mg protein | Km (dog liver microsomes; Dog 46 liver microsomes): 0.38 µM | Vmax (dog liver microsomes; Dog 46 liver microsomes): 39 pmol/min/mg protein | Km (dog liver microsomes; pDLM (liver microsomes pooled from 59 dogs)): 0.56 µM | Vmax (dog liver microsomes; pDLM (pooled from 59 dogs)): 50 pmol/min/mg protein | (+)-M5 formation rate (in words) (dog liver microsomes; pooled dog liver microsomes (n = 59), (+)-M1 at 10 μM, (+)-M2 at 0.5 μM): highest activities

CN(C)C[C@H]1CCCC[C@]1(O)c1cccc(O)c1 [M1, O-desmethyltramadol]
formation to metabolism ratio (human liver microsomes): 71 | formation to metabolism ratio (cat liver microsomes): 1926 | formation to metabolism ratio (dog liver microsomes): 42 | CSF to plasma concentration ratio [2]: 0.3

CNCC1CCCCC1(O)c1cccc(OC)c1 (centres unmarked) [M2, N-desmethyltramadol]
formation to metabolism ratio (human liver microsomes): 2.9 | formation to metabolism ratio (cat liver microsomes): 1.7 | formation to metabolism ratio (dog liver microsomes): 3.1 | CSF to plasma concentration ratio [2]: 0.4

CNCC1CCCCC1(O)c1cccc(O)c1 (centres unmarked) [M5, N,O-didesmethyltramadol]
weaker μ-opioid agonist efficacy and potency compared with M1 (μ-opioid): about 30 times | plasma concentration higher than M1 concentrations [3]: about 20 fold | M5 and M5 conjugates as a percentage of total metabolites in urine [4]: 43% | CSF to plasma concentration ratio [2]: less than 0.1 | CSF to plasma ratio less than M1 [2]: 3 fold

CC(=O)N1CCN(c2ccc(OCC3COC(Cn4ccnc4)(c4ccc(Cl)cc4Cl)O3)cc2)CC1 (centres unmarked) [ketoconazole]
IC50 (CYP2D15 [5]): 470 nM

C=C[C@H]1C[N@@]2CC[C@H]1C[C@@H]2[C@@H](O)c1ccnc2ccc(OC)cc12 [quinidine]
inhibition at 5 min, 10 μM [6]: > 70% | inhibition at 5 min, 10 μM (CYP2D15 [7]): > 70%

Nc1ccc(S(=O)(=O)Nc2ccnn2-c2ccccc2)cc1 [sulfaphenazole]
inhibition at 5 min, 100 μM [6]: < 50% | inhibition at 20 min, 100 μM [8]: > 50% | inhibition at 20 min, 100 μM (CYP2C21): > 50% | inhibition at 5 min, 100 μM (CYP2D15 [7]): < 50%

COc1cccc(C2(O)CCCCC2CN(C)C)c1 (centres unmarked) [tramadol, reference compound]
CSF to plasma concentration ratio [2]: 0.44

Source: publication PMC6214715 (Journal of veterinary pharmacology and therapeutics, 2018)
